Values after ≈ are worked out from the molar mass of the structure shown.
Assays:
[1] = Cytotoxicity against african green monkey Vero cells assessed as cell viability at 12.5 ug/ml by MTT assay; format: toxicity, cell-based; conditions: chlorocebus sabaeus, at 12.5 µg/mL, read-out: Activity
[2] = Renal toxicity in Albino mouse assessed as change in renal corpuscles at 50 to 2000 mg/kg, po measured after 14 days; format: organism-based; conditions: in vivo, 336 h, dose 50-2000 mg/kg, time 14 day
[3] = Renal toxicity in Albino mouse assessed as change in tubular capillaries at 50 to 2000 mg/kg, po measured after 14 days; format: organism-based; conditions: in vivo, 336 h, dose 50-2000 mg/kg, time 14 day
[4] = Cytotoxicity against african green monkey Vero cells assessed as cell viability at 100 ug/ml by MTT assay; format: toxicity, cell-based; conditions: chlorocebus sabaeus, at 100 µg/mL, read-out: Activity
[5] = Acute toxicity in Albino mouse assessed as change in SGPT count at 50 to 2000 mg/kg, po measured after 14 days (reference value: 52 IU/L); format: organism-based; conditions: in vivo, 336 h, dose 50-2000 mg/kg, time 14 day
[6] = Acute toxicity in Albino mouse assessed as change in monocytes at 50 to 2000 mg/kg, po measured after 14 days (reference value: 1%); format: organism-based; conditions: in vivo, 336 h, dose 50-2000 mg/kg, time 14 day
[7] = system: Mycobacterium tuberculosis; test: Antitubercular activity against Mycobacterium tuberculosis H37Rv incubated for 5 days by microtiter plate method; format: functional; conditions: 120 h, time 5 day
[8] = Acute toxicity in Albino mouse assessed as change in ESR at 50 to 2000 mg/kg, po measured after 14 days (reference value: 10 millimeter); format: organism-based; conditions: in vivo, 336 h, dose 50-2000 mg/kg, time 14 day
[9] = Renal toxicity in Albino mouse assessed as change in proximal convoluted tubules at 50 to 2000 mg/kg, po measured after 14 days; format: organism-based; conditions: in vivo, 336 h, dose 50-2000 mg/kg, time 14 day
[10] = Cytotoxicity against african green monkey Vero cells assessed as cell viability at 25 ug/ml by MTT assay; format: toxicity, cell-based; conditions: chlorocebus sabaeus, at 25 µg/mL, read-out: Activity
[11] = Acute toxicity in Albino mouse assessed as change in RBC count measured per million cells at 50 to 2000 mg/kg, po measured after 14 days (reference value: 9.15 microL); format: organism-based, Erythrocyte; conditions: in vivo, 336 h, dose 50-2000 mg/kg, time 14 day
[12] = Hepatotoxicity in Albino mouse assessed as change in portal vein at 50 to 2000 mg/kg, po measured after 14 days; format: toxicity, organism-based; conditions: in vivo, 336 h, dose 50-2000 mg/kg, time 14 day
[13] = Acute toxicity in Albino mouse assessed as change in eosinophils at 50 to 2000 mg/kg, po measured after 14 days (reference value: 3%); format: organism-based; conditions: in vivo, 336 h, dose 50-2000 mg/kg, time 14 day
[14] = Pulmonary toxicity in Albino mouse assessed as appearance of cilia at 50 to 2000 mg/kg, po measured after 14 days; format: organism-based; conditions: in vivo, 336 h, dose 50-2000 mg/kg, time 14 day
[15] = Pulmonary toxicity in Albino mouse assessed as change in alveolar sacs at 50 to 2000 mg/kg, po measured after 14 days; format: organism-based; conditions: in vivo, 336 h, dose 50-2000 mg/kg, time 14 day
[16] = Acute toxicity in po dosed Albino mouse assessed as mortality after 14 days; format: organism-based; conditions: in vivo, time 14 day
[17] = Cytotoxicity against african green monkey Vero cells assessed as cell viability at 50 ug/ml by MTT assay; format: toxicity, cell-based; conditions: chlorocebus sabaeus, at 50 µg/mL, read-out: Activity
[18] = Cytotoxicity against african green monkey Vero cells assessed as cell viability at 6.25 ug/ml by MTT assay; format: toxicity, cell-based; conditions: chlorocebus sabaeus, at 6.25 µg/mL, read-out: Activity
[19] = Acute toxicity in Albino mouse assessed as change in serum creatine level at 50 to 2000 mg/kg, po measured after 14 days (reference value: 0.9 mg/dl); format: organism-based; conditions: in vivo, 336 h, dose 50-2000 mg/kg, time 14 day
[20] = Pulmonary toxicity in Albino mouse assessed as change in bronchi structure at 50 to 2000 mg/kg, po measured after 14 days; format: organism-based; conditions: in vivo, 336 h, dose 50-2000 mg/kg, time 14 day
[21] = Cytotoxicity against african green monkey Vero cells assessed as cell viability at 3.125 ug/ml by MTT assay; format: toxicity, cell-based; conditions: chlorocebus sabaeus, at 3.125 µg/mL, read-out: Activity
[22] = Acute toxicity in Albino mouse assessed as mortality at 50 mg/kg, po after 14 days; format: organism-based; conditions: in vivo, 336 h, time 14 day
[23] = Renal toxicity in Albino mouse assessed as structural absorbability abnormalities at 50 to 2000 mg/kg, po measured after 14 days; format: organism-based; conditions: in vivo, 336 h, dose 50-2000 mg/kg, time 14 day
[24] = Acute toxicity in Albino mouse assessed as mortality at 300 mg/kg, po after 5 to 8 hrs; format: organism-based; conditions: in vivo, time 5-8 hrs
[25] = Hepatotoxicity in Albino mouse assessed as change in hepatic artery at 50 to 2000 mg/kg, po measured after 14 days; format: toxicity, organism-based, Liver; conditions: in vivo, 336 h, dose 50-2000 mg/kg, time 14 day
[26] = Acute toxicity in Albino mouse assessed as change in neutrophils at 50 to 2000 mg/kg, po measured after 14 days (reference value: 75%); format: organism-based; conditions: in vivo, 336 h, dose 50-2000 mg/kg, time 14 day
[27] = Hepatotoxicity in Albino mouse assessed as change in portal tracks at 50 to 2000 mg/kg, po measured after 14 days; format: toxicity, organism-based; conditions: in vivo, 336 h, dose 50-2000 mg/kg, time 14 day
[28] = Acute toxicity in Albino mouse assessed as change in ALP level at 50 to 2000 mg/kg, po measured after 14 days (reference value: 28 IU/L); format: organism-based; conditions: in vivo, 336 h, dose 50-2000 mg/kg, time 14 day
[29] = Hepatotoxicity in Albino mouse assessed as change in central vein at 50 to 2000 mg/kg, po measured after 14 days; format: toxicity, organism-based; conditions: in vivo, 336 h, dose 50-2000 mg/kg, time 14 day
[30] = Renal toxicity in Albino mouse assessed as change in renal tubules at 50 to 2000 mg/kg, po measured after 14 days; format: organism-based; conditions: in vivo, 336 h, dose 50-2000 mg/kg, time 14 day
[31] = Renal toxicity in Albino mouse assessed as change in Bowman's capsule at 50 to 2000 mg/kg, po measured after 14 days; format: organism-based; conditions: in vivo, 336 h, dose 50-2000 mg/kg, time 14 day
[32] = Renal toxicity in Albino mouse assessed as change in distal convoluted tubules at 50 to 2000 mg/kg, po measured after 14 days; format: organism-based; conditions: in vivo, 336 h, dose 50-2000 mg/kg, time 14 day
[33] = Hepatotoxicity in Albino mouse assessed as change in hepatocytes at 50 to 2000 mg/kg, po measured after 14 days; format: toxicity, organism-based; conditions: in vivo, 336 h, dose 50-2000 mg/kg, time 14 day
[34] = Pulmonary toxicity in Albino mouse assessed as appearance of goblet cells at 50 to 2000 mg/kg, po measured after 14 days; format: organism-based; conditions: in vivo, 336 h, dose 50-2000 mg/kg, time 14 day
[35] = Renal toxicity in Albino mouse assessed as extravasation of RBC at 50 to 2000 mg/kg, po measured after 14 days; format: organism-based, Erythrocyte; conditions: in vivo, 336 h, dose 50-2000 mg/kg, time 14 day
[36] = Acute toxicity in Albino mouse assessed as mortality at 2000 mg/kg, po after 2 to 4 hrs; format: organism-based; conditions: in vivo, time 2-4 hrs
[37] = Acute toxicity in Albino mouse assessed as change in hemoglobin level at 50 to 2000 mg/kg, po measured after 14 days (reference value: 12.8 g/dl); format: organism-based; conditions: in vivo, 336 h, dose 50-2000 mg/kg, time 14 day
[38] = Pulmonary toxicity in Albino mouse assessed as change in squamous pneumocytes at 50 to 2000 mg/kg, po measured after 14 days; format: organism-based; conditions: in vivo, 336 h, dose 50-2000 mg/kg, time 14 day
[39] = Hepatotoxicity in Albino mouse assessed as change in bile duct at 50 to 2000 mg/kg, po measured after 14 days; format: toxicity, organism-based, Liver; conditions: in vivo, 336 h, dose 50-2000 mg/kg, time 14 day
[40] = Acute toxicity in Albino mouse assessed as change in serum urea level at 50 to 2000 mg/kg, po measured after 14 days (reference value: 46 mg/dl); format: organism-based; conditions: in vivo, 336 h, dose 50-2000 mg/kg, time 14 day
[41] = Acute toxicity in Albino mouse assessed as change in lymphocytes at 50 to 2000 mg/kg, po measured after 14 days (reference value: 21%); format: organism-based; conditions: in vivo, 336 h, dose 50-2000 mg/kg, time 14 day
[42] = Acute toxicity in Albino mouse assessed as change in total leucocyte count at 50 to 2000 mg/kg, po measured after 14 days (reference value: 7400 mm3); format: organism-based; conditions: in vivo, 336 h, dose 50-2000 mg/kg, time 14 day
[43] = Acute toxicity in Albino mouse assessed as change in LDH level at 50 to 2000 mg/kg, po measured after 14 days (reference value: 1052 IU/L); format: organism-based; conditions: in vivo, 336 h, dose 50-2000 mg/kg, time 14 day
[44] = Acute toxicity in Albino mouse assessed as change in SGOT count at 50 to 2000 mg/kg, po measured after 14 days (reference value: 42 IU/L); format: organism-based; conditions: in vivo, 336 h, dose 50-2000 mg/kg, time 14 day
[45] = Pulmonary toxicity in Albino mouse assessed as change in alveoli structure at 50 to 2000 mg/kg, po measured after 14 days; format: organism-based; conditions: in vivo, 336 h, dose 50-2000 mg/kg, time 14 day

NC1=C(Cl)C(=O)c2ccccc2C1=O
viability at 12.5 ug/ml [1]: 31%
Activity [2]: Non-Toxic
Activity [3]: Non-Toxic
viability at 100 ug/ml [4]: 3.1%
Activity [5]: 26 IU/L
Activity [6]: 1%
MIC [7]: 15.1 µM (≈ 3.12 µg/mL)
Activity [8]: 16 millimeter/hr
Activity [9]: Non-Toxic
viability at 25 ug/ml [10]: 18%
Activity [11]: 4.53 10^6 cells/µL
Activity [12]: Non-Toxic
Activity [13]: 5%
Activity [14]: Non-Toxic
Activity [15]: Non-Toxic
LD50 at 336 h [16]: 50 mg/kg
viability at 50 ug/ml [17]: 9.3%
viability at 6.25 ug/ml [18]: 55%
Activity [19]: 0.9 mg/dL
Activity [20]: Non-Toxic
viability at 3.125 ug/ml [21]: 60%
Activity [22]: Non-Toxic
Activity [23]: Non-Toxic
Activity [24]: Toxic
Activity [25]: Non-Toxic
Activity [26]: 58%
Activity [27]: Non-Toxic
Activity [28]: 40 IU/L
Activity [29]: Non-Toxic
Activity [30]: Non-Toxic
Activity [31]: Non-Toxic
Activity [32]: Non-Toxic
Activity [33]: Non-Toxic
Activity [34]: Non-Toxic
Activity [35]: Non-Toxic
Activity [36]: Toxic
Activity [37]: 13.6 g/dL
Activity [38]: Non-Toxic
Activity [39]: Non-Toxic
Activity [40]: 68 mg/dL
Activity [41]: 36%
Activity [42]: 3900 cells/mm3
Activity [43]: 1519 IU/L
Activity [44]: 34 IU/L
Activity [45]: Non-Toxic
